Assay results from patent US4152440A, “Novel derivatives of imidazole, and pharmaceutical compositions containing them” (Hoechst Aktiengesellschaft, priority 1975, dated 1979).

How the values were obtained:
[1] = test system: Oxonat rat; assay: Combined metabolic test in the Oxonat rat (Test 2 of Table 2): uric acid in urine and serum; type: in vivo, male Wistar rats; conditions: for Serum - uric acid / Separation of uric acid in the urine, 3rd day / Serum - uric acid, % of control: 3rd day; for Separation of uric acid in the urine, 1st day: 1st day (urine collected before administration, control value)
Procedure: (§1) In this test series, the uricase activity of the rats' livers is inhibited by the application of potassium oxonate (potassium salt of 2,4-dihydroxy-1,3,5-triazine-(6)-carboxylic acid) and thus a gout-like disorder of the purine metabolism is induced. The animals are tested in two different ways.
(§2) 18 hours before the start of the test, the animals were placed separately in metabolism cages. At the same time they were offered unlimited quantities of a 0.5% potassium oxonate solution to drink. On the 1st day of the test, first the urine samples collected were removed (control value) then the substances to be tested were administered in a 0.5% potassium oxonate solution by oesophageal tube into the stomach. The same operation was repeated on the 2nd day of the test. After removal of the 24 hour urine (1st sample after administration of the preparation) the test substances were administered a second time by oesophageal tube. On the 3rd day of the test, the animals were killed and bled, immediately after the urine samples from the preceding 24 hours had been collected (2nd sample after administration of the preparation). Both in the serum obtained and also in the urine samples, the concentration of uric acid was determined enzymatically, using the uricase method (Uricaquant, Boehringer Mannheim), together with a large number of metabolic parameters.
This test series differs from the diuresis test described in 1) only in the method of administration of the uricase inhibitor. The animals drink water throughout the test and are given the potassium oxonate in a special feed mixture consisting of normal standard rat food to which 5% fructose, 3% uric acid, 2% potassium oxonate and 0.1% sweetener have been added. The administration of the preparations to be tested and the analysis of the urine samples from the 1st, 2nd and 3rd days of the test and of the serum samples obtained on the 3rd day of the test were carried out as described in the diuresis test.

[2] = Acute toxicity (LD50), oral by oesophageal tube; conditions: rat, in vivo, rats, mortality within 7 days
[3] = test system: Oxonat rat; assay: Diuresis test in the Oxonat rat (Test 1 of Table 2): uric acid in urine and serum; type: in vivo, male Wistar rats; conditions: 25 mg/kg oral, n=8, diuresis test (Test 1)
Procedure: The compounds may therefore be useful as therapeutic agents for various disorders of purine metabolism, particularly in treating primary and secondary gout.
as §1, §2

[4] = 50 mg/kg oral, n=8, comparison preparation, own control group (Test 2)
[5] = 25 mg/kg oral, n=8, combined metabolic test (Test 2)
[6] = 25 mg/kg oral, n=8, combined metabolic test (Test 2), * p<0.05 (Duncan), control 8.64± 3.51

Row | Structure (SMILES) | Serum - uric acid ([1]; 50 mg/kg oral, n=8, comparison preparation (Test 2), own control 6.70± 0.89) | Separation of uric acid in the urine, 1st day [1, 4] | Separation of uric acid in the urine, 2nd day [1, 4] | Separation of uric acid in the urine, 3rd day [1, 4] | Separation of uric acid in the urine, 2nd day [1, 5] | Separation of uric acid in the urine, 3rd day [1, 5] | Serum - uric acid, % of control [1, 5] | Serum - uric acid [1, 6] | LD50 at 168 h [2] | Separation of uric acid in the urine, 1st day [1, 5] | Separation of uric acid in the urine, 1st day ([3]; 1st day (urine collected before administration, control value)) | Separation of uric acid in the urine, 2nd day ([3]; 2nd day) | Separation of uric acid in the urine, 3rd day ([3]; 3rd day) | Serum - uric acid, % of control ([3]; 3rd day) | Serum - uric acid ([3]; 3rd day, * p<0.05 (Duncan), control 3.50± 1.15)
1 | Oc1ncnc2[nH]ncc12 [Allopurinol, 1 H-Pyrazolo[3,4-]pyrimidine-4-ol, reference compound] | 6.21± 0.76 mg % | 0.99± 0.51 | 2.16± 0.81 | 3.82± 1.59 |  |  |  |  |  |  |  |  |  |  | 
2 | Cn1ccnc1Cc1nnn[nH]1 [Example 1, 1-Methyl-2-(5-tetrazolylmethyl)-imidazole] |  |  |  |  | 3.30± 2.12 | 3.32± 1.94 | -44% | 4.83± 1.69 mg % | > 3150 mg/kg |  |  |  |  |  | 
3 | CC(C)n1ccnc1Cc1nn[nH]n1 [Example 3, 1-Isopropyl-2-(5-tetrazolymethyl)-imidazole] |  |  |  |  | 2.25± 0.41 |  | -19% | 6.97± 2.07 mg % |  | 1.68± 0.51 |  |  |  |  | 
4 | c1ccc(Cn2ccnc2Cc2nn[nH]n2)cc1 [Example 5, 1-benzyl-2-(5-tetrazolymethyl)-imidazole] |  |  |  |  | 2.76± 1.21 | 2.28± 1.31 | -30% | 6.05± 1.96 mg % |  | 1.78± 0.92 |  |  |  |  | 
5 | Cc1ccccc1-n1ccnc1Cc1nnn[nH]1 [Example 11, 1-(o-Tolyl)-2-(5-tetrazolylmethyl)-imidazole] |  |  |  |  | 2.24± 0.57 | 2.33± 1.70 | -31% | 6.00± 1.73 mg % |  | 1.12± 0.64 |  |  |  |  | 
6 | c1ccc(Cn2ccnc2-c2nnn[nH]2)cc1 [Example 24, 1-Benzyl-2-(5-tetrazolyl)-imidazole] |  |  |  |  | 2.04± 0.80 | 2.51± 1.55 | -30% | 6.07± 1.63 mg % | > 4000 mg/kg | 1.81± 0.61 | 2.56± 1.14 | 3.97± 1.44 | 3.47± 1.31 | -31% | 2.41± 0.98 mg %
